Test results reported in patent US20250090498A1, “TREATMENT OF PRIMARY CTLA-4 CHECKPOINT RELATED IMMUNODEFICIENCIES” (ADIENNE PHARMA & BIOTECH SA, priority 2023, published 2025).
One block for each compound: values may come before it.

Assays:
[1] = preliminary pharmacokinetics in serum after Eudragit-formulated 3-IAld (90% 3-IAld/10% 13C8-labeled 3-IAld), mass spectrometry; assay type: in vivo
Protocol: Primary pharmacodynamics studies have been performed. The mode of action of 3-IAld occurs upon binding to AhR, both in vitro and in vivo. In vitro, 3-IAld induced luciferase activity in the H1L1.1c2 cell line containing a stably-transfected AhR-responsive firefly luciferase at the dose range […] (Zelante et al, 2013). […] Preliminary pharmacokinetics data have been obtained by administration of Eudragit-formulated 3-IAld in the composition 90% 3-IAld/10% 13C8-labeled 3-IAld and targeted/untargeted analysis by mass spectrometry in serum at different times (30 minutes (min), 1 hour (h), 2 h, 4.5h, 6 h, 24h). […] The presence of indole-3-formic acid was also confirmed with labelled 3-IAld (FIG. 13E), showing a similar kinetics and a peak level of about 25 μM at 30 min.

[2] = single-dose pharmacokinetic study in healthy C57BL/6 mice, tissues and serum by mass spectrometry
Protocol: A single-dose pharmacokinetic (PK) study was performed on healthy C57BL/6 mice to compare 1ME3CA and 3-IAld at 0.36 mg/topo dose. Untreated naïve mice were used as the control. […] Blood, obtained by cardiac puncture and collected into EDTA-containing tubes, and organs (brain, lung, intestine, liver and kidney) were assessed. All samples were stored at −80° C. until use. To evaluate 1ME3CA and 3-IAld for functional activity, the expression of AhR-downstream genes were concomitantly evaluated in these mice.

AhR = target: T1, AhR (Homo sapiens, UniProt P35869); assay: Cyp1A1 induction in HepG2 liver cancer cell line; assay type: cell-based; design: endogenous in cells; host or cells: HepG2, A549, Calu-3, CaCo-2; conditions: for induction of the AhR activation marker Cyp1A1 (mRNA): between 1 and 100 μM
T1 sequence (P35869 11-848): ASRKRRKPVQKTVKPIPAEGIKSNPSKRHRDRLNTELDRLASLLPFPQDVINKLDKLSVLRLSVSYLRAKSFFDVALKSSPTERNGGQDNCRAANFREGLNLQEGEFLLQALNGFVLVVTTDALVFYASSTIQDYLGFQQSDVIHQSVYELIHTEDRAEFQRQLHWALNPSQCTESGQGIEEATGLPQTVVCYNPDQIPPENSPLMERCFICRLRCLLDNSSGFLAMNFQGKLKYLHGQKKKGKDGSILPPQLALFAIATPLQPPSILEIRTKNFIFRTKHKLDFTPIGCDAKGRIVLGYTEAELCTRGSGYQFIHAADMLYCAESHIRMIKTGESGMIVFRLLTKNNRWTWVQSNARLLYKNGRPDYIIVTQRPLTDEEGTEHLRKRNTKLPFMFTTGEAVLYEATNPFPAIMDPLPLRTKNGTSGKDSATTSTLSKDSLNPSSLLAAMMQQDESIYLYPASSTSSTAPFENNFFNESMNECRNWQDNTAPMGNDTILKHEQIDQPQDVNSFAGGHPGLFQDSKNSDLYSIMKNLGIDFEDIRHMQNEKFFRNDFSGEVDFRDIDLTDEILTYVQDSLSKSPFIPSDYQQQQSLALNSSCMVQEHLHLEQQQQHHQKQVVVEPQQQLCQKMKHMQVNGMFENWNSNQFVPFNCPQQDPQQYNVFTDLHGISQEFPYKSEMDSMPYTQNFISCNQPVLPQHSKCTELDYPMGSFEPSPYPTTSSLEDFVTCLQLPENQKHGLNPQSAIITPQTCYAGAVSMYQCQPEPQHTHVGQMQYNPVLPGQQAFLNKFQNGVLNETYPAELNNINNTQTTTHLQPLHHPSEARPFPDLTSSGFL
Text: FIG. 14 graphically represents Cypla1 mRNA fold increase with the addition of 3-IAld or Ox-3-IAld.

serum level of methylated forms of indole-3-formic acid at 1 hour ([1]; 1 hour after 3-IAld): reduced levels
peak serum level of methylated forms of indole-3-formic acid ([1]; at 30 minutes after 3-IAld): about 150 nM
SMILES: Cn1c(C(=O)O)cc2ccccc21 [1-Methylindole-2-carboxylic acid]

concentrations in all organs ([2]; after enteric 1ME3CA 18 mg/Kg): basal
clearance of metabolites from the organs ([2]; after oral 3-IAld 18 mg/Kg): rapid clearance
presence as metabolite of 3-IAld in serum and other tissues ([2]; after oral 3-IAld 18 mg/Kg): main metabolite
pharmacological activity in vitro (AhR): pharmacologically active
SMILES: O=C(O)c1c[nH]c2ccccc12 [indole-3-formic acid]
induction of the AhR activation marker Cyp1A1 (mRNA) (AhR): induce the AhR activation marker Cyp1A1 in a dose-dependent manner
induction of the AhR activation marker Cyp1A1 (mRNA) (AhR; listed as Ox-3-IAld): induction of the AhR activation marker Cyp1A1 in a dose-dependent manner

serum level of methylated forms of indole-3-formic acid at 1 hour ([1]; in vivo): reduced levels
SMILES: COC(=O)c1c[nH]c2ccccc12 [Methyl indole-3-carboxylate]
